Laboratory results published in paper PMC5889410, “Design and Biological Evaluation of Antifouling Dihydrostilbene Oxime Hybrids” (Marine Biotechnology (New York, N.y.), 2018).
Like-named read-outs stand apart in the source and are kept apart here.

Legend:
Vibrio aestuarianus [1] = details: cited from earlier work
Porphyridium purpureum [2] = details: cited from earlier work
Ciona savignyi = tested on: Ciona savignyi; design: method as in Moodie et al. [2017b]; details: ref Moodie et al. [2017b], cited from earlier work
Vibrio proteolyticus [3] = details: cited from earlier work
Vibrio harveyi [4] = details: cited from earlier work
Vibrio carchariae [5] = details: cited from earlier work
Halomonas aquamarina [6] = details: cited from earlier work
Halomonas aquamarina [7] = details: cited from earlier work; remark: listed apart in the source
Halamphora coffeaeformis [8] = details: cited from earlier work
Vibrio carchariae [9] = details: cited from earlier work; remark: listed apart in the source
[10] = tested on: Pleurochrysis roscoffensis; details: cited from earlier work
[11] = tested on: Balanus improvisus cyprid larvae; details: cited from earlier work
Halamphora coffeaeformis [12] = details: cited from earlier work; remark: listed apart in the source
Cylindrotheca closterium [13] = details: cited from earlier work
Vibrio natriegens = details: cited from earlier work
Vibrio aestuarianus [14] = details: cited from earlier work; remark: listed apart in the source
[15] = tested on: Pleurochrysis roscoffensis; details: cited from earlier work; remark: listed apart in the source
Cylindrotheca closterium [16] = details: cited from earlier work; remark: listed apart in the source
Vibrio proteolyticus [17] = details: cited from earlier work; remark: listed apart in the source
[18] = tested on: Pseudoalteromonas elyakovii; details: cited from earlier work
Porphyridium purpureum [19] = details: cited from earlier work; remark: listed apart in the source
marine bacteria = details: panel of marine bacteria; ref Moodie et al. [2017b]; cited from earlier work
Roseobacter litoralis = details: cited from earlier work
Shewanella putrefaciens = details: cited from earlier work
Vibrio harveyi [20] = details: cited from earlier work; remark: listed apart in the source
[21] = tested on: Balanus improvisus cyprid larvae; experiment: whole plant or invertebrate; assay type: in vivo; details: Amphibalanus improvisus, 120 h, read-out: IC50 (cyprid settlement inhibition)
Source text: Cyprid larvae of B. improvisus were reared in a laboratory cultivating system at Tjärnö Marine Biological Laboratory, University of Gothenburg, Sweden, as previously described by Berntsson et al. ([2000]). Four pure, but non-axenic, marine microalgae (obtained from Algobank, Caen, France) and 10 marine bacterial strains were used (Table 1) as representative microfoulers. These strains represent fouling species encountered in both estuarine and marine environments (Moodie et al. [2017b]). The bacteria were grown at 26 °C in a marine medium, composed of 0.5% peptone (neutralized bacteriological peptone, Oxoid Ltd.) in filtered (Whatman 1001–270, pore size 11 μm) natural seawater. Microalgae were grown and maintained at 22 °C in F/2 medium.
Stock solutions of compounds in DMSO were serially diluted in untreated polystyrene Petri dishes containing 10 mL of filtered (0.2 μm) seawater, affording final concentrations ranging from 0.1 to 10 μg/mL. Freshly molted balanide cyprids (18–22) were added to each Petri dish and incubated at ambient temperature (20–25 °C) for 5 days. Cyprid metamorphosis was assessed using a dissecting microscope where the numbers of juvenile settled, free-swimming, and dead cyprids were noted. Initial compound screening was conducted at 5 μg/mL, and full IC50 determination was performed only on compounds displaying > 50% inhibition at that concentration. The IC50 was defined as the concentration preventing 50% of the cyprid settlement on the Petri dish surface. Each concentration was replicated four times (n = 4), and dishes containing 0.1% of DMSO were used as negative controls. The commercial AF agent Sea-nine™ was employed as a positive control.

COc1ccc(CCc2ccccc2)cc1OC [Compound 2]
0.1 mg/L: MIC against the adhesion (A) of microalgae, C. closterium (Cylindrotheca closterium [16]; ref Moodie et al. ([2017b])) | MIC against the growth of marine bacteria, S.p. (Shewanella putrefaciens; ref Moodie et al. ([2017b]))
effectively inhibited: inhibition of settlement, in words (Ciona savignyi; even after 5 days)
0.75 mg/L: IC50 (cyprid settlement inhibition) ([11]; B. improvisus, ref Moodie et al. ([2017b]))
inactive: Activity against bacterial adhesion (marine bacteria)
5.3%: Toxicity (%) (dead cyprids) ([11]; B. improvisus, reported at 5 μg/mL, ref Moodie et al. ([2017b]))
low toxicity: toxicity, in words (Ciona savignyi) | toxicity, in words ([11]; Balanus improvisus, ref Moodie et al. [2017b])
– (Not active at > 10 μg/mL): MIC against the adhesion of marine bacteria, V.p. (Vibrio proteolyticus [3]; ref Moodie et al. ([2017b])) | MIC against the growth of marine bacteria, V.h. (Vibrio harveyi [4]; ref Moodie et al. ([2017b])) | MIC against the adhesion of marine bacteria, V.c. (Vibrio carchariae [5]; ref Moodie et al. ([2017b])) | MIC against the adhesion of marine bacteria, H.a. (Halomonas aquamarina [7]; ref Moodie et al. ([2017b])) | MIC against the growth of marine bacteria, V.c. (Vibrio carchariae [9]; ref Moodie et al. ([2017b])) | MIC against the growth of marine bacteria, V.n. (Vibrio natriegens; ref Moodie et al. ([2017b])) | MIC against the adhesion of marine bacteria, V.a. (Vibrio aestuarianus [14]; ref Moodie et al. ([2017b])) | MIC against the growth of marine bacteria, V.p. (Vibrio proteolyticus [17]; ref Moodie et al. ([2017b])) | MIC against the adhesion of marine bacteria, V.h. (Vibrio harveyi [20]; ref Moodie et al. ([2017b]))
10 mg/L: MIC against the growth of marine bacteria, V.a. (Vibrio aestuarianus [1]; ref Moodie et al. ([2017b])) | MIC against the growth of marine bacteria, P.e. ([18]; ref Moodie et al. ([2017b])) | MIC against the adhesion (A) of microalgae, P. purpureum (Porphyridium purpureum [19]; ref Moodie et al. ([2017b])) | MIC against the growth of marine bacteria, R.l. (Roseobacter litoralis; ref Moodie et al. ([2017b]))
0.01 mg/L: MIC against the growth of marine bacteria, H.a. (Halomonas aquamarina [6]; ref Moodie et al. ([2017b])) | MIC against the growth (G) of microalgae, H. coffeaformis (Halamphora coffeaeformis [8]; ref Moodie et al. ([2017b])) | MIC against the growth (G) of microalgae, P. roscoffensis ([10]; ref Moodie et al. ([2017b])) | MIC against the growth (G) of microalgae, C. closterium (Cylindrotheca closterium [13]; ref Moodie et al. ([2017b]))
1 mg/L: MIC against the growth (G) of microalgae, P. purpureum (Porphyridium purpureum [2]; ref Moodie et al. ([2017b])) | MIC against the adhesion (A) of microalgae, H. coffeaformis (Halamphora coffeaeformis [12]; ref Moodie et al. ([2017b])) | MIC against the adhesion (A) of microalgae, P. roscoffensis ([15]; ref Moodie et al. ([2017b]))
1.1 mg/L: IC50 (settlement inhibition) (Ciona savignyi)

CCCCCCCCn1sc(Cl)c(Cl)c1=O [Sea-nine™]
< 0.01 mg/L: MIC against the growth of marine bacteria, V.a. (Vibrio aestuarianus [1]; ref Trepos et al. ([2015])) | MIC against the growth (G) of microalgae, P. purpureum (Porphyridium purpureum [2]; ref Trepos et al. ([2015])) | MIC against the adhesion of marine bacteria, V.c. (Vibrio carchariae [5]; ref Trepos et al. ([2015])) | MIC against the adhesion of marine bacteria, H.a. (Halomonas aquamarina [7]; ref Trepos et al. ([2015])) | MIC against the growth (G) of microalgae, H. coffeaformis (Halamphora coffeaeformis [8]; ref Trepos et al. ([2015])) | MIC against the growth of marine bacteria, V.c. (Vibrio carchariae [9]; ref Trepos et al. ([2015])) | MIC against the growth (G) of microalgae, P. roscoffensis ([10]; ref Trepos et al. ([2015])) | MIC against the adhesion (A) of microalgae, H. coffeaformis (Halamphora coffeaeformis [12]; ref Trepos et al. ([2015])) | MIC against the growth (G) of microalgae, C. closterium (Cylindrotheca closterium [13]; ref Trepos et al. ([2015])) | MIC against the adhesion (A) of microalgae, P. roscoffensis ([15]; ref Trepos et al. ([2015])) | MIC against the adhesion (A) of microalgae, C. closterium (Cylindrotheca closterium [16]; ref Trepos et al. ([2015])) | MIC against the adhesion (A) of microalgae, P. purpureum (Porphyridium purpureum [19]; ref Trepos et al. ([2015]))
0.25 mg/L: IC50 [21]
0.01 mg/L: MIC against the adhesion of marine bacteria, V.p. (Vibrio proteolyticus [3]; ref Trepos et al. ([2015])) | MIC against the growth of marine bacteria, V.p. (Vibrio proteolyticus [17]; ref Trepos et al. ([2015]))
1 mg/L: MIC against the growth of marine bacteria, V.h. (Vibrio harveyi [4]; ref Trepos et al. ([2015])) | MIC against the growth of marine bacteria, V.n. (Vibrio natriegens; ref Trepos et al. ([2015])) | MIC against the adhesion of marine bacteria, V.a. (Vibrio aestuarianus [14]; ref Trepos et al. ([2015])) | MIC against the growth of marine bacteria, R.l. (Roseobacter litoralis; ref Trepos et al. ([2015])) | MIC against the growth of marine bacteria, S.p. (Shewanella putrefaciens; ref Trepos et al. ([2015])) | MIC against the adhesion of marine bacteria, V.h. (Vibrio harveyi [20]; ref Trepos et al. ([2015]))
0.1 mg/L: MIC against the growth of marine bacteria, H.a. (Halomonas aquamarina [6]; ref Trepos et al. ([2015])) | MIC against the growth of marine bacteria, P.e. ([18]; ref Trepos et al. ([2015]))
